{"source": "patent US7332489B2", "about": "“Methods and compositions of novel triazine compounds” (Reddy US Therapeutics, Inc., priority 2003, dated 2008)", "key": {"[1]": {"tested_on": "TNF-α induced IL-6", "assay": "TNF-α-induced IL-6 production determined by IL-6 ELISA", "assay_type": "cell-based", "settings": "Homo sapiens, 24 h", "procedure,_shortened": "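Human aortic endothelial cells grown to ≥90% confluence, then treated with compounds and stimuli in serum-free medium with 0.2% albumin. Secreted IL-6 in collected media measured by sandwich ELISA (2 ug/ml capture, 200 ng/ml biotinylated detection antibody, streptavidin-HRP), read at 450 nm.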"}, "[2]": {"tested_on": "G-HSA induced IL-6", "assay": "AGE-induced inflammatory response determined by IL-6 ELISA (glycated human serum albumin stimulus)", "assay_type": "cell-based", "settings": "24 h, read-out: % IL6 production compare to AGE stimulation of IL6 (100%), Compds tested @ 10 uM HAEC, IL6", "method": "Human aortic endothelial cells (HAEC, Clonetics) were cultured according to manufacturer in growth medium (Clonetics): basal medium containing human epidermal growth factor, hydrocortisone, vascular endothelial growth factor, heparin binding growth factor-B, long R3-insulin-like growth factor-1, ascorbic acid, gentamicin/amphotericin and 5% FBS. These cell were allowed to reach at least 90% confluency before subjected to experimental treatments. Glycated human serum albumin (G-HSA) was from US Biologicals. Tumor necrosis factor α was from R&D Systems.\nEndothelial cells were treated with control medium or medium containing 10 to 100 ng/ml TNF-α or 300 μg/ml glycated-HAS (treated cells or treatments) for 24 hrs, in control and compound-added duplicates, containing 10 μM compound. All treatments, compound-added and controls were carried out in serum free media containing 0.2% albumin. Media from all conditions were collected and used for IL-6 ELISA.\nIL-6 ELISA was carried out using human IL-6 DuoSet ELISA development kit as described by manufacturer (R&D Systems). Mouse anti-human Il-6 was used as the capture antibody (2 ug/ml) and biotinylated goat anti-human IL-6 (200 ng/ml) was used as the detection antibody. Culture media were incubated with capture antibody (in 96 well) for 2 h at room temperature. […] Color development was read at 450 nm in a Microplate reader."}}, "note": "Like-named read-outs stand apart in the source and are kept apart here."}
{"smiles": "CCN1CCCC1CNc1nc(Nc2scc(C)c2C(N)=O)nc(NC2CCCCCC2)n1", "note": "(centres unmarked) [Compound 39, 2-[(4-(cycloheptylamino)-6-{[(1-ethyl-2-pyrrolidinyl)methyl]amino}-1,3,5-triazin-2-yl)-amino]-4-methyl-3-thiophenecarboxamide]", "values": [{"measurement": "activity at 10 µM", "setting": "[1]; Table 5, second part, column 1, class = % of control IL6 production, read-out: Inhibition of TNF-induced IL6, production", "value": "25 to 50", "unit": "%"}, {"measurement": "activity at 10 µM", "setting": "[2]; HAEC, 10 uM compound, AGE stimulation = 100%", "value": 26, "unit": "%"}]}
{"smiles": "CN1CCC(N(C)c2nc(Nc3ccc4ccccc4c3)nc(NC3CC3)n2)CC1", "note": "[Compound 180, N-Cyclopropyl-N′-methyl-N′-(1-methyl-piperidin-4-yl)-N″-naphthalen-2-yl-[1,3,5]tri-azine-2,4,6-triamine]", "values": [{"measurement": "inhibition at 10 µM", "setting": "[1]; read-out: Inhibition of TNF-induced IL6 production, Table 7, first part", "value": "85 to 100", "unit": "%"}, {"measurement": "inhibition at 10 µM", "setting": "[1]; read-out: Inhibition of TNF-induced IL6 production, Table 7, second part, column 1", "value": "50 to 65", "unit": "%"}, {"measurement": "activity at 10 µM", "setting": "[2]", "value": 5, "unit": "%"}]}
